One series addresses T1, Dopamine D2 receptor (Homo sapiens, UniProt P14416).
T1 construct: purchased Receptor Biology (now owned by NEN) RBHD2CM
In words: Dopamine D2 receptor binding assay ([125I]iodospiperone). The protocol:
The assay buffers used are 50 mM Tris-HCl pH 7.4, 120 mM NaCl, 5 mM KCl, 5 mM MgCl2, 1 mM EDTA for the Dopamine D2s receptor binding assay. […] The membranes used are from Receptor Biology (now owned by NEN), Cat # RBHD2CM for the D2 receptor.
Compounds are obtained as 10 mM stocks in 100% DMSO. They are diluted to 1 mM in 100% DMSO by adding 180 μL DMSO to 20 μL of stock in 96 well plates using a multidrop. […] This is done using a TECAN robot.
The radioligand is diluted in assay buffer to provide 0.1 nM for the D2 assay. Each vial of membranes is diluted up to 92 mL in assay buffer. The final assay volume is 250 μL consisting of 210 μl of diluted membranes, 20 μL of compound or 10% DMSO for total binding, and 20 μL of diluted radioligand. The compounds are transferred from drug dilution plates into coming 96 well assay plates using a 96 well Multimek pipettor. Radioligand and membranes are added to assay plates using multidrop pipettors. Non-specific binding is determined in wells containing a final concentration of 5 μM haloperidol. The final drug concentration range in half logs is from 10 μM down to 0.1 nM.
After addition of drug, membrane, and ligand, the plates are incubated for 2 hours at room temperature. During this time 96 well Millipore filter plates (MAFBNOB50) are soaked for a least 30 minutes with 200 μL per well of 0.5% polyethyleneimine.
The 0.5% PEI is removed from filterplate wells using a TiterTek MAP aspirator and 200 μL of the incubation mixture is transferred from the incubation plate to the filterplate after mixing. This transfer is done using the 96 tip Mutimek pipettor. After transfer to the filterplate filterplates are extracted and ished twice with 220 μL per well of cold buffer on the MAP aspirator. The peel away bottoms are removed from the filterplates and 60 μL per well of microscint 20 scintillation fluid is added per well using a multidrop. […]

Series [1] deals with T2, human Histamine-1 receptors (Homo sapiens, UniProt P35367).
T2 construct: expressed in transfected cells
Briefly: 3H-Pyrilamine SPA binding to human Histamine-1 receptors. The settings on record: read-out: Receptor affinity (Ki, nM) H1. As to the method: Their ability of a compound to block histamine H1 receptors can be estimated in vitro by measuring the in vitro histamine H1 receptor affinity. […] The ratio of in vitro histamine H1 receptor affinity divided by the in vitro dopamine D2 receptor affinity, both expressed as Ki's, is an estimate of a compound's likelihood to cause weight gain at therapeutic levels. […] Incubations were performed in a total volume of 200 μl in 96 well assay plates. 50 μl ^3H-pyrilamine (NEN, 20 Ci/mmol, final concentration=3.0 nM) was added to 50 μl of test compounds dissolved in water (±DMSO and/or glacial acetic acid). 50 μl Wheat Germ Agglutinin (WGA) bead, at 1 mg/well, (Amersham Life Sciences) in assay buffer (67 mM TrisCl pH 7.4) were then added. Membrane homogenate from cells expressing human Histamine-1 receptors, approximately 700,000 cells/well, was added last. The plates were covered with sealing tape (FasCal) and allowed to incubate at room temperature for 2 hours. The plates were then centrifuged at approximately 200×g for 10 minutes at room temperature. The amount of ^3H-pyrilamine bound to the membranes, ie proximate to the WGA bead, was then determined using a Wallac MicroBeta Trilux Scintillation Counter (Wallac, Inc.).

For the next series, the target named is T3, dopamine D2 receptors (Rattus norvegicus, UniProt P61169).
T3 construct: from tissue; host or cells: male Sprague Dawley rats, nucleus accumbens (in vivo)
Briefly: DOPAC concentrations in rat nucleus accumbens (in vivo D2 receptor blockade). Conditions: dose that increases DOPAC to 200% of control, 90 minutes after gavage. The protocol:
Antipsychotics are believed to exert at least part of their therapeutic effects through blockade of the dopamine D2 receptor. The ability of a compound to block dopamine D2 receptors in the rat in vivo was determined by measuring the effect of the compound on the level of DOPAC (3,4-dihydroxyphenylacetic acid), a metabolite of dopamine, in nucleus accumbeus of the rat. Dopamine D2 receptor antagonists increase the release of dopamine into the synapse due to blockade of the dopamine D2 autoreceptor. This increased release of dopamine cannot be directly measured, since the efficiency of the dopamine reuptake system prevents increases in synaptic dopamine concentrations. Instead, increases in the levels of the dopamine metabolites DOPAC (3,4-dihydroxyphenylacetic acid) and HVA (homovanillic acid) reflect increased neuronal dopaminergic activity in vivo.
(§1) Male Sprague Dawley rats (Harlan Sprague Dawley, Inc., Indianapolis, Ind.) weighing 110 grams were fasted overnight. […] All other compounds were administered at 5 ml/kg in dilute lactic acid. Tissues were dissected, frozen on dry ice and stored at −70° C. prior to analysis.
Rat nucleus accumbens DOPAC (3,4-dihydroxyphenylacetic acid) concentrations were measured using high-pressure liquid chromatography with electrochemical detection (HPLC-EC). Tissues were sonicated in 1 ml 0.1N TCA. After centrifugation, a 25 µl aliquot of supernatant was injected onto a BDS Hypersyl C18 column (150×4.6 mm, Keystone Scientific). The elution buffer contained 75 mM sodium phosphate monobasic, 0.5 mM EDTA, 350 mg/L 1-octanesulfonate sodium, 7% acetonitrile (v/v) and 0.7% tetrahydrofuran (v/v), pH 3.0. The flow rate was 1.2 ml/min at 40° C. Peak heights were measured at 750 mV at 10 nA sensitivity and compared with samples containing known amounts of DOPAC standards.

The target in series [2] is T4, hypothalamic histamine H1 receptors (Rattus norvegicus, UniProt P31390).
T4 construct: from tissue; host or cells: hypothalamus of male Sprague Dawley rats
In words: Histamine H1 ex vivo binding ([3H]-pyrilamine, rat hypothalamic homogenates). It counts as in vivo. The settings on record: rat hypothalamus; dose required to occupy 50% of histamine H1 receptors; 90 minutes after gavage. As to the method:
The in vivo potency of a compound to occupy hypothalamic histamine H1 receptors in the rat was determined using a histamine H1 ex vivo binding assay.
as §1
Ex vivo binding of the histamine H1 antagonist [^3H]-pyrilamine (NEN Life Science Products) to rat hypothalamic homogenates was determined. Tissues were homogenized in 600 μl incubation buffer (50 mM sodium phosphate monobasic, pH 7.4) and pre-incubated 10 minutes at 37° C. to remove endogenous histamine. Triplicate tubes, each containing 100 μl homogenate, were combined with 1 ml buffer containing 3 nM [^3H]-pyrilamine and incubated 30 minutes at 25° C. […] [^3H]-pyrilamine binding was measured after separation filtration using a Brandell cell harvester with GF/C filters which had been soaked in 0.1% polyethylenimine. ED50 values were determined using the Allfit statistical program for displacement binding.

Where [3] appears, read: read-out: Receptor affinity (Ki, nM) D2.
Where [4] appears, read: relative Ki scale of Table 5, read-out: Relative D2 Receptor Binding Affinity Ki.

Where a name gives a salt, the structure may show the parent alone. Read-outs that look alike come from different tables or passages of the source.

T1 sequence (P14416 1-414 isoform P14416-2): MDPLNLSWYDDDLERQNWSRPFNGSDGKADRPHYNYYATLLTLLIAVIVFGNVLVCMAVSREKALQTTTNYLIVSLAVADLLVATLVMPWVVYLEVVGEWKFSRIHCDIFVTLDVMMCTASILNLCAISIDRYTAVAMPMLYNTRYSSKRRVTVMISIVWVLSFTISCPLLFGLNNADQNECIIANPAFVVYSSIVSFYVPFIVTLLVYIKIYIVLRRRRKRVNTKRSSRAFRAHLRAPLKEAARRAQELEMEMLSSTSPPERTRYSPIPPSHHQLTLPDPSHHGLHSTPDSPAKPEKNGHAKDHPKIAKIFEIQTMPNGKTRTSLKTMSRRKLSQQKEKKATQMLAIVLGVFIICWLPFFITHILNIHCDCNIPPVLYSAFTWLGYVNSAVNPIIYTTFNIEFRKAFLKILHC
T2 sequence (P35367 whole entry): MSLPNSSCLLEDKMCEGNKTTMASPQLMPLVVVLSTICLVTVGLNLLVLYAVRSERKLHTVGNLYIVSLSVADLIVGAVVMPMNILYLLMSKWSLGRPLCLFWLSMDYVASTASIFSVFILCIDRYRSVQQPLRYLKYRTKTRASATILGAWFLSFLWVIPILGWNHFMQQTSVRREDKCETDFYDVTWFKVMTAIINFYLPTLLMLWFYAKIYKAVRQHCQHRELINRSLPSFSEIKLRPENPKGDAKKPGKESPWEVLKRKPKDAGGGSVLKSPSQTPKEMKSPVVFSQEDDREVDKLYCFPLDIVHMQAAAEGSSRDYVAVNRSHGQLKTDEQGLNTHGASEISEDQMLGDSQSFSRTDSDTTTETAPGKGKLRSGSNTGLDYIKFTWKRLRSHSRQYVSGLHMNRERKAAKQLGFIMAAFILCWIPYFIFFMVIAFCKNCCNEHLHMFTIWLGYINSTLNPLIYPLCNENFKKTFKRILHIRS
T4 sequence (P31390 whole entry): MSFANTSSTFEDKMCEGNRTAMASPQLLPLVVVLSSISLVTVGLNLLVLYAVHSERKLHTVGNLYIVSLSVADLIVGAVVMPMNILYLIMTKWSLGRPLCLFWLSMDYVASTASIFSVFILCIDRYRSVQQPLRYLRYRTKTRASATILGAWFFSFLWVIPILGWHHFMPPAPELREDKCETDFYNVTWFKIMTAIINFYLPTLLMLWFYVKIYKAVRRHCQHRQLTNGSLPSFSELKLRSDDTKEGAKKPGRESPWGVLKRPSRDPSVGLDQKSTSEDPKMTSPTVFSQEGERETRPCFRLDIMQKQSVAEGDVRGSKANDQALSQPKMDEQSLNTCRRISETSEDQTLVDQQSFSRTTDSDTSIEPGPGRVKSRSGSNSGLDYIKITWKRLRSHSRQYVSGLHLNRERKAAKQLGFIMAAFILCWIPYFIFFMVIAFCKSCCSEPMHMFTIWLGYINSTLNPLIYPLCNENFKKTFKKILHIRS
T3 sequence (P61169 whole entry): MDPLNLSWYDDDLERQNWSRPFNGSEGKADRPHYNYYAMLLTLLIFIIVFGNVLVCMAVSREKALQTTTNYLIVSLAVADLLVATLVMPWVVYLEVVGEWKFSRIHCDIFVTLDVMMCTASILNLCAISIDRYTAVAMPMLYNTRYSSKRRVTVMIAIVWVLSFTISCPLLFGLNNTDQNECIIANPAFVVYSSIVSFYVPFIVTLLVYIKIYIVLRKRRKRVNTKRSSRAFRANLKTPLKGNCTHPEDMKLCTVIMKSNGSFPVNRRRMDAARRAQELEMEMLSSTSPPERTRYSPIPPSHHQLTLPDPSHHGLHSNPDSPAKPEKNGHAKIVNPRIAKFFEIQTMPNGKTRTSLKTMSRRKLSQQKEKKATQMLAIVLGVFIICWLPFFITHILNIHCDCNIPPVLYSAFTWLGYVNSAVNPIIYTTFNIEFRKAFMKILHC

Turning to `COCC[C@H]1CN(C2=Nc3cc(Cl)ccc3Nc3sc(C)cc32)CCN1C` [Example 292, (S)-7-Chloro-10-[3-(2-methoxy-ethyl)-4-methyl-piperazin-1-yl]-2-methyl-4H-3-thia-4,9-diaza-benzo[f]azulene dihydrochloride], the Ki at Dopamine D2 receptor (setting [3]) amounted to 13 nM; in series [1] it was 48 nM. For the same compound, on dopamine D2 receptors, the “In vivo activity D2: DOPAC elevation (ED200)” value (shortened to “In vivo activity D2”) is 7.5 mg/kg, po. In series [2], the “In vivo activity H1: H1 ex vivo binding (ED50)” value (shortened to “In vivo activity H1”) was >30 mg/kg, po. Turning to `COCC[C@H]1CN(C2=Nc3ccccc3Nc3ccc(C)cc32)CCN1C` [Example 216, (S)-2-Methyl-11-[3-(2-methoxy-ethyl)-4-methyl-piperazin-1-yl]-5H-dibenzo[b,e][1,4]diazepine], the melting point was 60 °C (dec.). Further, the Ki at Dopamine D2 receptor (setting [4]) is 100 to 1000 nM.

In the case of `COCC[C@H]1CN(C2=Nc3ccccc3Nc3ccc(C)cc32)CCN1` [Example 199, (S)-2-Methyl-11-[3-(2-methoxy-ethyl)-piperazin-1-yl]-5H-dibenzo[b,e][1,4]diazepine], the melting point was 63 °C (dec.). Besides, the inhibitory constant (Ki) at Dopamine D2 receptor (setting [4]) lay in the range of 100 to 1000 nM. Consider `COCC[C@H]1CN(C2=Nc3ccc(F)cc3Nc3sc(C)cc32)CCN1C` [Example 279, (S)-6-Fluoro-10-[3-(2-methoxy-ethyl)-4-methyl-piperazin-1-yl]-2-methyl-4H-3-thia-4,9-diaza-benzo[f]azulene hydrochloride], for which the Ki on Dopamine D2 receptor (setting [3]) amounted to 6 nM; in series [1] it was 24 nM. Moreover, the “In vivo activity D2” value on dopamine D2 receptors is given as 6 mg/kg, po. Also, the “In vivo activity H1” value in series [2] is given as >30 mg/kg, po. Turning to `Cc1cc2c(s1)Nc1ccccc1N=C2N1CCN[C@@H](CCO)C1.Cl.Cl` [Example 240, (S)-2-[4-(2-Methyl-4H-3-thia-4,9-diazabenzo[f]azulene-10-yl)-piperazin-2-yl]ethanol dihydrochloride], the melting point was > 250 °C (dec.). In addition, the Ki on Dopamine D2 receptor (setting [4]) fell in the range of 10 to 100 nM. With `COCC[C@H]1CN(C2=Nc3cc(F)c(F)cc3Nc3sc(C)cc32)CCN1C.Cl.Cl` [Example 288, (S)-6,7-Difluoro-10-[3-(2-methoxy-ethyl)-4-methyl-piperazin-1-yl]-2-methyl-4H-3-thia-4,9-diaza-benzo[f]azulene hydrochloride], the results for the inhibition constant (Ki) (at Dopamine D2 receptor (setting [3]); in series [1]) were 11 nM and 80 nM, respectively. The “In vivo activity D2” value at dopamine D2 receptors is 6.4 mg/kg, po. Further, the “In vivo activity H1” value in series [2] is >30 mg/kg, po. For `Cc1cc2c(s1)Nc1ccccc1N=C2N1CCN[C@H](CCO)C1.Cl.Cl` [Example 241, (R)-2-[4-(2-Methyl-4H-3-thia-4,9-diazabenzo[f]azulene-10-yl)-piperazin-2-yl]ethanol dihydrochloride], the melting point is > 250 °C (dec.). Moreover, the Ki at Dopamine D2 receptor (setting [4]) was 100 to 1000 nM.

For the compound `COCC[C@H]1CN(C2=Nc3ccc(F)cc3Nc3sc(C)cc32)CCN1` (as salt: hydrochloride) [Example 248b, (S)-6-Fluoro-10-[3-(2-methoxy-ethyl)-piperazin-1-yl]-2-methyl-4H-3-thia-4,9-diaza-benzo[f]azulene dihydrochloride], the melting point stood at 90 °C.

`CCc1cc2c(s1)Nc1cc(F)ccc1N=C2N1CCN(C)[C@@H](CCOC)C1` (as salt: hydrochloride) [Example 280, (S)-6-Fluoro-10-[3-(2-methoxy-ethyl)-4-methyl-piperazin-1-yl]-2-ethyl-4H-3-thia-4,9-diaza-benzo[f]azulene dihydrochloride] returned a melting point of 186 to 188 °C. On the same count and under the same terms, the same measure for `Cc1cc2c(s1)Nc1cc(F)ccc1N=C2N1CCN(C)[C@@H](CCO)C1.Cl.Cl`: 230 °C; for `Cc1cc2c(s1)Nc1ccccc1N=C2N1CCN(C)[C@@H](CO)C1` [Example 259, (R)-[1-Methyl-4-(2-methyl-4H-3-thia-4,9-diaza-benzo[f]azulen-10-yl)-piperazin-2-yl]-methanol]: 118 to 124 °C; for `CSCC[C@H]1CN(C2=Nc3ccc(F)cc3Nc3sc(C)cc32)CCN1C.Cl.Cl`: 194 °C. On the same count and under the same terms, the same measure for `Cc1cc2c(s1)Nc1ccccc1N=C2N1CCN(C)[C@@H](COCc2ccccc2)C1` [Example 270, (R)-10-(3-Benzyloxymethyl-4-methyl-piperazin-1-yl)-2-methyl-4H-3-thia-4,9-diaza-benzo[f]azulene]: 55 to 65 °C; for `Cc1cc2c(s1)Nc1ccccc1N=C2N1CCN(C)[C@@H](COc2ccccc2)C1` [Example 265, (R)-10-(4-Methyl-3-phenoxymethyl-piperazin-1-yl)-2-methyl-4H-3-thia-4,9-diaza-benzo[f]azulene]: 74 to 88 °C.

As to `COCC[C@H]1CN(C2=Nc3cc(F)c(F)cc3Nc3sc(C)cc32)CCN1` [Example 254, (S)-6,7-Difluoro-10-[3-(2-methoxy-ethyl)-piperazin-1-yl]-2-methyl-4H-3-thia-4,9-diaza-benzo[f]azulene], the melting point is 198 to 202 °C (dec.).

As to `COCC[C@H]1CN(C2=Nc3ccccc3Nc3ccc(Cl)cc32)CCN1C` (as salt: hydrochloride), the melting point was found to be 205 °C. For the compound `COCC[C@H]1CN(C2=Nc3ccccc3Nc3ccc(C(F)(F)F)cc32)CCN1C` [Example 221, (S)-2-Trifluoromethyl-11-[3-(2-methoxy-ethyl)-4-methyl-piperazin-1-yl]-5H-dibenzo[b,e][1,4]diazepine], the melting point fell in the range of 48 to 56 °C.

The values are drawn from patent US7384934B2, “Piperazine substituted aryl benzodiazepines” (Eli Lilly and Company, priority 2002, dated 2008).
